The first assay deals with endogenous CETP from serum (Homo sapiens (Human), UniProt P11597). In words: RTA assay in 95% human serum (CETP-catalyzed CE and TG transfer, endogenous CETP). Type of assay: biochemical. The conditions noted are these: 95% human serum; read-out: RTA (95% HS). The text has this: In Vitro Radioactive Assays of CETP-Catalyzed CE and TG Transfer (RTA Assay)
Sequence of endogenous CETP from serum (P11597 18-493 limits assumed): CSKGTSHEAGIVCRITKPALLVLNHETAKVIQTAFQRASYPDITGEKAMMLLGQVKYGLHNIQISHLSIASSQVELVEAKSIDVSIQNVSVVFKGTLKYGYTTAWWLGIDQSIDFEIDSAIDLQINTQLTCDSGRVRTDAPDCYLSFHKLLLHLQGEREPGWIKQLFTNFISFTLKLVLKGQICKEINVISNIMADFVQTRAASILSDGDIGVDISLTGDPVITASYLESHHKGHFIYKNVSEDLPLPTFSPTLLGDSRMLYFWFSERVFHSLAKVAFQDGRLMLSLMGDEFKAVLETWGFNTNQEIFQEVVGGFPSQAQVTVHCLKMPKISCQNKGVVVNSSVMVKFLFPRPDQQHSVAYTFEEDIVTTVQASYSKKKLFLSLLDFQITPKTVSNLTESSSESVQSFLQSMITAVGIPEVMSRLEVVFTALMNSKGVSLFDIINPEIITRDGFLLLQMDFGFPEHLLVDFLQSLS
Reagents and sources are: [3H] cholesteryl oleate (GE #TRK.886), [3H] Triolein (Perkin-Elmer NET-431), Butylated hydroxyl toluene (Aldrich, #D4740-4), DOPC (Sigma, #P6354), Sodium Bromide (Fisher scientific #S255-500), PEG 8000 (Fisher, #BP233-1), and human HDL (Intracel Corp #RP-036).
Both assays measure the transfer of [3H] cholesteryl oleate or [3H] triolein from exogenous LDL to HDL.
Radiolabeled donor particles are generated by first combining 100 μl of 200 μM butylated hydroxyl toluene in CHCl3, 216 μL of 21.57 mM DOPC in EtOH, and either 500 μCi [3H]-triolein (Perkin Elmer #NET-431) or 500 μCi [3H]-cholesteryl oleate (GE #TRK886) in a glass tube. Reagents are mixed, dried under nitrogen, and then resuspended in 2 mL of 50 mM Tris, 27 μM EDTA at pH 7.4. After a brief vortex, the solution is sonicated until clear and mixed with 20 mL of fresh human serum. The mixture is incubated overnight at 37° C. The [3H] labeled LDL substrate is separated at 1.063 g/ml density by sequential ultracentrifugal flotation in NaBr according to the method of Havel, Eder, et al., 1955, and Chapman, Goldstein, et al., 1981. Once isolated the particles are dialyzed 3× in CETP buffer (50 mM Tris, pH 7.4, 100 mM NaCl, 1 mM EDTA). Human HDL is purchased from Intracel and used as the acceptor particles.
Transfer assays are performed in a 96-well v-bottom polypropylene plate. For the RTA using recombinant CETP (2% RTA), an assay cocktail is prepared with the final concentrations 128 μg/mL HDL, 20 nM rCETP, 2% human serum, and 1×CETP buffer. 1 μL of each test compound diluted in DMSO is added to 47 μL of assay cocktail per well and incubated at 37° C. for 1 hour. To initiate the transfer reaction, 2 μL radiolabeled LDL is added. After an additional 60 min of incubation at 37° C., the transfer action is terminated by precipitation of LDL with an equal volume of 20% W/V PEG 8000. The plates are centrifuged at 2000 rpm for 30 minutes at 4° C. A 40 μL aliquot of the HDL-containing supernatant is transferred to a Packard Optiplate™ with 200 μL of MicroScint™ 20. After mixing, plates are counted by liquid scintillation. Counts present in the supernatant for blanks (wells containing only HDL acceptor, CETP buffer and DMSO) are subtracted from those containing test compounds and used to correct for non-specific transfer.
For the transfer assay using endogenous CETP from serum (95% RTA), the same procedure is used except that human serum is added such that a final concentration of serum of 95% of the total assay volume is achieved, yielding a concentration of approximately 15 nM endogenous CETP in the assay. This is then combined with HDL and CETP buffer and the reaction proceeds as above and is terminated as described.
Comparison of the counts of samples with inhibitors to an uninhibited (DMSO only) positive control yield a percent inhibition. A plot of percent inhibition vs. log of inhibitor concentration, fit to a Sigmoidal 4 parameter equation is used to calculate IC50.
Starting materials are commercially available or are made using known procedures or as shown below. The examples may be synthesized according to the general schemes provided below and through the synthetic intermediates that are described. […] When compounds of Formula I or Formula II are mentioned herein, such compounds include compounds defined generically by Formula I or II and also the specific examples disclosed herein.
For `COc1ccc([C@H]2C[C@H](C(=O)O)C2)cc1-c1ccc(C(F)(F)F)nc1CN1C(=O)O[C@H](c2cc(C(F)(F)F)cc(C(F)(F)F)c2)C12CC2` [Example 1, trans-3-{3-[2-({(7R)-7-[3,5-bis(trifluoromethyl)phenyl]-5-oxo-6-oxa-4-azaspiro[2.4]hept-4-yl}methyl)-6-(trifluoromethyl)pyridin-3-yl]-4-methoxyphenyl}cyclobutanecarboxylic acid], the IC50 is 962 nM.

In the case of `COc1ccc([C@H]2C[C@H](CO)C2)cc1-c1ccc(C(F)(F)F)nc1CN1C(=O)O[C@H](c2cc(C(F)(F)F)cc(C(F)(F)F)c2)C12CC2` [Example 6, (7R)-7-[3,5-bis(trifluoromethyl)phenyl]-4-{[3-{5-[trans-3-(hydroxymethyl)cyclobutyl]-2-methoxyphenyl}-6-(trifluoromethyl)pyridin-2-yl]methyl}-6-oxa-4-azaspiro[2.4]heptan-5-one], the IC50 came out at 1850 nM.

In the case of `COC(=O)c1ccc(-c2ccc(OC)c(-c3cnc(SC)nc3CN3C(=O)O[C@H](c4cc(C(F)(F)F)cc(C(F)(F)F)c4)C34CCC4)c2)c(C)c1` [Example 17, methyl 3′-[4-({(8R)-8-[3,5-bis(trifluoromethyl)phenyl]-6-oxo-7-oxa-5-azaspiro[3.4]oct-5-yl}methyl)-2-(methylsulfanyl)pyrimidin-5-yl]-4′-methoxy-2-methylbiphenyl-4-carboxylate], the IC50 stood at 913 nM.

Turning to `COc1ccc(-c2ccc(C(=O)O)cc2C)cc1-c1cnc(N(C)C)nc1CN1C(=O)O[C@H](c2cc(C(F)(F)F)cc(C(F)(F)F)c2)C12CC2` [Example 9, 3′-[4-({(7R)-7-[3,5-bis(trifluoromethyl)phenyl]-5-oxo-6-oxa-4-azaspiro[2.4]hept-4-yl}methyl)-2-(dimethylamino)pyrimidin-5-yl]-4′-methoxy-2-methylbiphenyl-4-carboxylic acid], the IC50 was found to be 55.5 nM.

Staying with this assay, now noted: generally RTA assay in 95% human serum; read-out: IC50.
As to `COc1cc(F)c(C(C)C)cc1-c1cnc(N(C)C)nc1CN1C(=O)OC(c2cc(C(F)(F)F)cc(C(F)(F)F)c2)C12CC2` (stereo not shown) [Example 10, 7-[3,5-bis(trifluoromethyl)phenyl]-4-({2-(dimethylamino)-5-[4-fluoro-2-methoxy-5-(1-methylethyl)phenyl]pyrimidin-4-yl}methyl)-6-oxa-4-azaspiro[2.4]heptan-5-one], the IC50 was 345 nM.

For `COc1ccc(-c2ccc(CO)cc2C)cc1-c1cnc(N2CC(F)C2)nc1CN1C(=O)O[C@H](c2cc(C(F)(F)F)cc(C(F)(F)F)c2)C12CCC2` [Example 7, (8R)-8-[3,5-bis(trifluoromethyl)phenyl]-5-({2-(3-fluoroazetidin-1-yl)-5-[4′-(hydroxymethyl)-4-methoxy-2′-methylbiphenyl-3-yl]pyrimidin-4-yl}methyl)-7-oxa-5-azaspiro[3.4]octan-6-one], the IC50 turned out to be 68 nM.

Regarding `COc1ccc(-c2ccc(C(=O)O)cc2C)cc1-c1cnc(N2CC(F)C2)nc1CN1C(=O)O[C@H](c2cc(C(F)(F)F)cc(C(F)(F)F)c2)C12CCC2` [Example 12, 3′-[4-({(8R)-8-[3,5-bis(trifluoromethyl)phenyl]-6-oxo-7-oxa-5-azaspiro[3.4]oct-5-yl}methyl)-2-(3-fluoroazetidin-1-yl)pyrimidin-5-yl]-4′-methoxy-2-methylbiphenyl-4-carboxylic acid], the IC50 is 73 nM.

Regarding `COc1ccc(CCC(=O)O)cc1-c1ccc(C(F)(F)F)nc1CN1C(=O)O[C@H](c2cc(C(F)(F)F)cc(C(F)(F)F)c2)C12CC2` [Example 5, 3-{3-[2-({(7R)-7-[3,5-bis(trifluoromethyl)phenyl]-5-oxo-6-oxa-4-azaspiro[2.4]hept-4-yl}methyl)-6-(trifluoromethyl)pyridin-3-yl]-4-methoxyphenyl}propanoic acid], the IC50 is 3360 nM.

For `COC(=O)c1ccc(-c2ccc(OC)c(-c3cnc(SC)nc3CN3C(=O)O[C@H](c4cc(C(F)(F)F)cc(C(F)(F)F)c4)C34CC4)c2)c(C)c1` [Example 18, methyl 3′-[4-({(7R)-7-[3,5-bis(trifluoromethyl)phenyl]-5-oxo-6-oxa-4-azaspiro[2.4]hept-4-yl}methyl)-2-(methylsulfanyl)pyrimidin-5-yl]-4′-methoxy-2-methylbiphenyl-4-carboxylate], the IC50 turned out to be 596 nM.

Regarding `COc1cc(F)c(C(C)C)cc1-c1cnc(N(C)C)nc1CN1C(=O)OC(c2cc(C(F)(F)F)cc(C(F)(F)F)c2)C12CCC2` (stereo not shown) [Example 11, 8-[3,5-bis(trifluoromethyl)phenyl]-5-({2-(dimethylamino)-5[4-fluoro-2-methoxy-5-(1-methylethyl)phenyl]pyrimidin-4-yl}methyl)-7-oxa-5-azaspiro[3.4]octan-6-one], the IC50 amounted to 318 nM.

`COc1ccc(-c2ccc(C(=O)O)cc2C)cc1-c1cnc(N2CC(F)C2)nc1CN1C(=O)O[C@H](c2cc(C(F)(F)F)cc(C(F)(F)F)c2)C12CC2` [Example 15, 3′-[4-({(7R)-7-[3,5-bis(trifluoromethyl)phenyl]-5-oxo-6-oxa-4-azaspiro[2.4]hept-4-yl}methyl)-2-(3-fluoroazetidin-1-yl)pyrimidin-5-yl]-4′-methoxy-2-methylbiphenyl-4-carboxylic acid]: the IC50 turned out to be 104 nM.

In the case of `COc1ccc(-c2ccc(C(=O)O)cc2C)cc1-c1ccc(C(F)(F)F)nc1CN1C(=O)O[C@H](c2cc(C(F)(F)F)cc(C(F)(F)F)c2)C12CC2` [Example 2, 3′-[2-({(7R)-7-[3,5-bis(trifluoromethyl)phenyl]-5-oxo-6-oxa-4-azaspiro[2.4]hept-4-yl}methyl)-6-(trifluoromethyl)pyridine-3-yl]-4′-methoxy-2-methylbiphenyl-4-carboxylic acid], the IC50 was determined as 212 nM.

As for `COc1ccc(-c2ccc(C(=O)O)cc2C)cc1-c1cnc(N2CCOCC2)nc1CN1C(=O)O[C@H](c2cc(C(F)(F)F)cc(C(F)(F)F)c2)C12CCC2` [Example 13, 3′-[4-({(8R)-8-[3,5-bis(trifluoromethyl)phenyl]-6-oxo-7-oxa-5-azaspiro[3.4]oct-5-yl}methyl)-2-morpholin-4-ylpyrimidin-5-yl]-4′-methoxy-2-methylbiphenyl-4-carboxylic acid], the IC50 came to 242 nM.

As to `COc1ncc(-c2ccc(C(=O)O)cc2C)cc1-c1ccc(C(F)(F)F)nc1CN1C(=O)O[C@H](c2cc(C(F)(F)F)cc(C(F)(F)F)c2)C12CC2` [Example 4, 4-[2′-({(7R)-7-[3,5-bis(trifluoromethyl)phenyl]-5-oxo-6-oxa-4-azaspiro[2.4]hept-4-yl}methyl)-2-methoxy-6′-(trifluoromethyl)-3,3′-bipyridin-5-yl]-3-methylbenzoic acid], the IC50 was 173 nM.

In the case of `COc1ccc(-c2ccc(C(=O)O)cc2C)cc1-c1cnc(N2CCOCC2)nc1CN1C(=O)O[C@H](c2cc(C(F)(F)F)cc(C(F)(F)F)c2)C12CC2` [Example 16, 3′-[4-({(7R)-7-[3,5-bis(trifluoromethyl)phenyl]-5-oxo-6-oxa-4-azaspiro[2.4]hept-4-yl}methyl)-2-morpholin-4-ylpyrimidin-5-yl]-4′-methoxy-2-methylbiphenyl-4-carboxylic acid], the IC50 turned out to be 272 nM.

For `COc1cc(F)c(-c2ccc(C(=O)O)cc2C)cc1-c1ccc(C(F)(F)F)nc1CN1C(=O)O[C@H](c2cc(C(F)(F)F)cc(C(F)(F)F)c2)C12CC2` [Example 3, 5′-[2-({(7R)-7-[3,5-bis(trifluoromethyl)phenyl]-5-oxo-6-oxa-4-azaspiro[2.4]hept-4-yl}methyl)-6-(trifluoromethyl)pyridin-3-yl]-2′-fluoro-4′-methoxy-2-methylbiphenyl-4-carboxylic acid], the IC50 turned out to be 119 nM.
